Measured values reported in US20080070939A1, “LOCAL […] COMPOSITIONS CONTAINING DEXTROROTATORY MORPHINAN DERIVATIVES OR PHARMACEUTICALLY ACCEPTABLE SALTS THEREOF” (CHI MEI FOUNDATION HOSPITAL, priority 2006, published 2008).
Counter-ions that a name gives are not always drawn. Like-named read-outs stand apart in the source and are kept apart here.

Legend:
Male Sprague-Dawley rats = assay: Infiltrative cutaneous anesthesia (inhibition of cutaneous trunci muscle reflex, CTMR) after subcutaneous injection in rats; format: in vivo
Method: Male Sprague-Dawley rats (weighing about 200 to 250 g); for each dose of each drug, n=8.
In brief, hairs on the dorsal surface (about 10×10 cm^2) of the thoracolumbar region of the rat were shaved, and the shaved surface was sterilized with iodine for preparation. To reduce the number of animals used, the back of the rat was further divided into left and right parts. One drug was injected first at the right part. After a washout period of one week, another drug was injected at the left part.
0.6 mL of drug was injected subcutaneously under the dorsal surface of the thoracolumbar region of the rat using a 30-gauge needle attached to a syringe (Becton Drive, Franklin Lakes, USA). The subcutaneous injection would result in a circular elevation (i.e., a wheal) of the skin, about 2 cm in diameter. The elevation was marked with ink within 1 minute after injection.
CTMR refers to the reflex movement of the skin of the back caused by twitching of the lateral thoracispinal muscle in response to local dorsal cutaneous stimulation. Essentially, a von Frey filament (No.15; Somedic Sales AB, Sweden) to which a cut end of an 18-gauge needle was affixed was used to produce a standard nociceptive stimulus (strength: 19 g). Six pinpricks (at a frequency of 0.5-1 Hz) were applied to a single marked wheal during each test. […] For example, absence of any response to all of the 6 pinpricks was defined as a complete nociceptive block (i.e., 100% MPE).
The difference resided in that subcutaneous injections of ED25, ED50 and ED75 of the drugs were performed based on the method described in the section “A. Drug injection” of this example, and evaluation of the infiltrative cutaneous anesthetic effect was performed based on the method described in the section “B. Neurobehavioral evaluation” of this example.

sciatic nerve = assay: Sciatic nerve blockade after injection at the sciatic nerve notch in rats; format: in vivo; parameters: AUC of time-% PE curve, sciatic nerve blockade of motor function / AUC of time-% PE curve, sciatic nerve blockade of proprioception / AUC of time-% PE curve, sciatic nerve blockade of nociceptive reaction: unit not given beside the values; settings: for ED50: Rattus norvegicus
Method: Male Sprague-Dawley rats (weighing about 300 to 350 g); for each dose of each drug, n=6.
In brief, the rats were slightly anesthetized by inhalation of a low concentration of sevoflurane. Then, 200 μL of tested drugs were injected at the sciatic nerve notch at the left hind limb of the rat using a 27-gauge needle connected to a tuberculin syringe (Becton Dickinson, USA, model BND309623-BX). Thereafter, development of sciatic nerve blockade was observed from the paralysis of the left hind limb of the rat. The right hind limb served as a control during the subsequent functional assay
For proprioception, the front half of the rat body and the right hind limb were off the ground at the same time so that the rat was standing on the left hind limb during the measurement.
The differences resided in that: The sciatic nerve notch injections of ED25, ED50 and ED75 were conducted based on the method described in the preceding section “A. Drug injection” of this example. Evaluations of motor function, proprioception and nociceptive reaction were conducted based on the method described in section “B. Neurobehavioral evaluations” of this example.
The differences resided in that: Before the statistical analysis, Shapiro-Wilk test was used to evaluate whether the data were, theoretically, normally distributed.

[1] = infiltrative cutaneous anesthesia, rats, 2ED50 when administered independently, ED50 for co-administration, mean ± SEM
[2] = infiltrative cutaneous anesthesia, subcutaneous injection, rats
[3] = same effective doses (ED25, ED50 or ED75), rats
[4] = subcutaneous dose of ED75, rats, mean±SEM
[5] = dosage of 6.7 mg/kg, sciatic nerve notch injection, rats
[6] = rats, 2ED50 when administered independently, ED50 of each drug when co-administered, mean ± SEM

## COc1ccc2c(c1)[C@]13CCCC[C@@H]1[C@H](C2)N(C)CC3 [Dextromethorphan hydrobromide monohydrate]
Male Sprague-Dawley rats; Rattus norvegicus, sc, infiltrative cutaneous anesthesia, subcutaneous injection, rats, read-out: ED50 (95% CI)
  ED50: 2.05 mg/kg
Male Sprague-Dawley rats; [1]
  % MPE: 67 ± 8 % MPE
  AUC (% min.): 2300 ± 440 % min.
  Duration: 58 ± 4 min
Male Sprague-Dawley rats; [2]
  ED25: 1.35 mg/kg
  ED75: 3.11 mg/kg
Male Sprague-Dawley rats; [3]
  duration of cutaneous anesthesia compared with lidocaine hydrochloride: longer duration
Male Sprague-Dawley rats; [4]
  % MPE of cutaneous nociceptive block: 71±8 % MPE
  duration of cutaneous nociceptive block: approximately 50±5 minutes
Male Sprague-Dawley rats; subcutaneous, rats, ED50 of each drug
  effect of co-administration with lidocaine hydrochloride on cutaneous nociceptive blockade: additive effect
Sciatic nerve; ED50 basis, p<0.01, rats
  sciatic nerve blocking effect on nociceptive reaction compared with motor function: more potent sciatic nerve blocking effect on nociceptive reaction than on motor function
Sciatic nerve; read-out: Mean ED50
  ED50: 3.72 mg/kg
Sciatic nerve; read-out: Motor function ED50 (95% CI)
  ED50: 3.95 mg/kg
Sciatic nerve; read-out: Nociceptive reaction ED50 (95% CI)
  ED50: 3.49 mg/kg
Sciatic nerve; read-out: Proprioception ED50 (95% CI)
  ED50: 3.73 mg/kg
Sciatic nerve; [5]
  % MPE of sciatic nerve blockade of motor function: about 71±7 % MPE
  % MPE of sciatic nerve blockade of nociceptive reaction: ~83±11 % MPE
  % MPE of sciatic nerve blockade of proprioception: ~78±7 % MPE
  duration of sciatic nerve blockade of motor function: about 77±10 minutes
  duration of sciatic nerve blockade of nociceptive reaction: ~85 ± 11 min
  duration of sciatic nerve blockade of proprioception: ~78 ± 8 min
Sciatic nerve; rats, ED50 of each drug
  effect of co-administration with lidocaine hydrochloride on sciatic nerve blockades: additive effect
Sciatic nerve; [6]
  AUC of time-% PE curve, sciatic nerve blockade of motor function: 4056 ± 212
  AUC of time-% PE curve, sciatic nerve blockade of nociceptive reaction: 6295 ± 643
  AUC of time-% PE curve, sciatic nerve blockade of proprioception: 5498 ± 507
Sciatic nerve; [3]
  duration of sciatic nerve blockade compared with lidocaine hydrochloride: longer reaction duration
